Common to all, as to assay type: physicochemical
A short description of series [1]: Partition coefficient (logP). The settings on record: octanol/water.
Series [2] is described as follows: Partition coefficient of g-rotamer in octanol water system.
The nature of series [3]: Partition coefficient of t-rotamer in octanol water system.
A short description of series [4]: Partition coefficient of h-rotamer in octanol water system.

Usually logP stands for a log measure of how a compound divides between an organic and an aqueous phase. Lower therefore signals a more hydrophilic compound.

As for `CC(C)(C)NCC(O)c1cc(Cl)c(N)c(Cl)c1` (centres undefined) [CLENBUTEROL], the log partition coefficient (logP) turned out to be 2.71 in series [1], 2.14 in series [2], 2.87 in series [3] and 2.57 in series [4].

The values above are taken from ChEMBL document CHEMBL1144929, “Determination of conformer-specific partition coefficients in octanol/water systems” (J Med Chem, 2003).
